This assay concerns the target Induced myeloid leukemia cell differentiation protein Mcl-1/Bcl-2-like protein 11 (Homo sapiens, UniProt Q07820). Kind of assay: Cell Free Mcl-1:Bim Affinity Assay (Mcl-1 HTRF): The inhibition of the Mcl-1/Bim interaction was measured using a time-resolved fluorescence resonance energy transfer (TR-FRET) assay. The recombinant human Mcl-1 (C-terminally 6×His tagged Mcl-1 containing residues 171-327) was generated at Amgen Inc (Thousand Oaks, Calif.). A biotinylated peptide derived from human Bim (residues 51-76) was purchased from CPC Scientific (San Jose, Calif.). The TR-FRET assay was conducted in a 384-well white OptiPlate™ (PerkinElmer, Waltham, Mass.) in a total volume of 40 μL. The reaction mixture contained 0.1 nM Mcl-1(171-327), 0.05 nM biotin-Bim(51-76), 0.05 nM LANCES Eu-W1024 Anti-6×His (PerkinElmer), 0.072 nM Streptavidin-Xlent (Cisbio, Bedford, Mass.), and serially diluted test compounds in the binding buffer of 20 mM Hepes, pH 7.5, 150 mM NaCl, 0.016 mM Brij®35, and 1 mM dithiothreitol. Test compounds were pre-incubated with Mcl-1(171-327) and biotin-Bim (51-76) for 60 min before addition of the detection mixture (LANCE® Eu-W1024 Anti-6×His and Streptavidin-Xlent). The reaction plates were further incubated overnight and then were read on an Envision® multimode reader (PerkinElmer). Fluorescence signals were measured at 620 nm (40-nm bandwidth) and 665 nm (7.5-nm bandwidth) with a 60 μs delay after excitation at 320 nm (75-nm bandwidth). […]. Type of assay: protein assay. On the technique in general: TR-FRET usually uses a lanthanide donor and a delayed reading to cut background.

Sequence of Induced myeloid leukemia cell differentiation protein Mcl-1/Bcl-2-like protein 11 (Q07820 whole entry, the tested form may be a part): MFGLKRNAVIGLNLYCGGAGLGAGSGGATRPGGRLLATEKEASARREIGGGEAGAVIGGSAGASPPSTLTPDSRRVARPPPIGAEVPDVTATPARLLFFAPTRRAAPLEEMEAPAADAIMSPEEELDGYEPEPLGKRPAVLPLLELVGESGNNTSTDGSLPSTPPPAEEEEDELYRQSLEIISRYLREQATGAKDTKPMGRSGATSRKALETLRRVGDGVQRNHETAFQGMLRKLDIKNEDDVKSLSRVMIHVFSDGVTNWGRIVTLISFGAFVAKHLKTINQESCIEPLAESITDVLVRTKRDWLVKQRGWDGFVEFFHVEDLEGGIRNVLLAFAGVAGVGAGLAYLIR
Sequence of Induced myeloid leukemia cell differentiation protein Mcl-1/Bcl-2-like protein 11 (O43521 whole entry, further chain, the tested form may be a part): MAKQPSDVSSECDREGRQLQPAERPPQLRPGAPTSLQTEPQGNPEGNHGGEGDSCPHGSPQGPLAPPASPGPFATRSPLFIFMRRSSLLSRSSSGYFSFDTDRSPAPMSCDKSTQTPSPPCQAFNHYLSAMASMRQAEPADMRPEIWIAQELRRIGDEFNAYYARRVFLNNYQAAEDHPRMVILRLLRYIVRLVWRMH

One may read the IC50 as the concentration that gives 50% inhibition. For the compound `C[C@@H]1[C@@H](C)CCC[C@H](CN2CCN3CCN(C(=O)OC(C)(C)C)C[C@@H]3C2)[C@@H]2CC[C@H]2CN2C[C@@]3(CCCc4cc(Cl)ccc43)COc3ccc(cc32)C(=O)NS1(=O)=O`, the concentration for half-maximal inhibition (IC50) was 1.42 nM.

As for `C[C@@H]1[C@@H](C)CCC[C@@H](CC(=O)N2CCN3CCOC[C@H]3C2)[C@@H]2CC[C@H]2CN2C[C@@]3(CCCc4cc(Cl)ccc43)COc3ccc(cc32)C(=O)NS1(=O)=O`, the IC50 was determined as 0.123 nM.
